Assay: viscosity of aqueous glycerol solutions (DV1 Viscometer)
Format: physicochemical
Details: room temperature (23.5° C.), SC4-21 spindle
Text: Specifically, larger differences in the viscosity between the oil and the aqueous phases will hinder the emulsion formation and promote phase separation. The formulations disclosed herein thus preferably include viscosity modifying agents to increase the viscosity of the aqueous phase and improve the emulsion stability by diminishing the rise of the oil droplets to the surface. Table 3 contain examples of increasing the viscosity of an aqueous solution using glycerol/glycerine. Viscosity modifiers are added to the aqueous phase to increase the viscosity in and attempt to mitigate the difference in viscosity between the oil phase and the aqueous phases and thus promote emulsion stability.

- Viscosity: 905.0 cP
SMILES: OCC(O)CO [100%, glycerol]
